The source of these data is ChEMBL document CHEMBL1138078, “Antitumor activity of JS-K [O2-(2,4-dinitrophenyl) 1-[(4-ethoxycarbonyl)piperazin-1-yl]diazen-1-ium-1,2-diolate] and related O2-aryl diazeniumdiolates in vitro and in vivo” (J Med Chem, 2006).

For assay [1], the system named is HL-60. In words: Antiproliferative activity against human HL60 cell line. The assay is classed as functional, cell-based.
The subject of assay [2] is JM1. In words: Antiproliferative activity against JM1 cell line implanted in Fischer rat liver assessed as decrease in tumor weight. In kind it is functional, cell-based.
Assay [3] relates to Panel NCI-51 (51 carcinoma cell lines). In words: Antiproliferative activity against human NCI51 cell line. The assay is classed as functional.
Assay [4] concerns 786-0. Briefly: Antiproliferative activity against human 786-0 cell line at 100 uM. The assay is classed as functional.
For assay [5], the system named is CAKI-1. Briefly: Antiproliferative activity against human CAKI1 cell line at 100 uM. In kind it is functional.
In assay [6] the test system is TK-10. In words: Antiproliferative activity against human TK10 cell line at 100 uM. In kind it is functional.

Molecules are shown by their SMILES.

In turn, `CN(C)/[N+]([O-])=N\Oc1cc(Nc2ccc(C(=O)O)cc2)c([N+](=O)[O-])cc1[N+](=O)[O-]` displayed a 50% inhibitory concentration (IC50) in assay [1] (Homo sapiens, HL-60) of 9.1 µM.
On the same count and under the same terms, with `CCOC(=O)N1CCN(/[N+]([O-])=N/Oc2cc(O/N=[N+](\[O-])N3CCN(C(=O)OC)CC3)c([N+](=O)[O-])cc2[N+](=O)[O-])CC1` the figure was 0.8 µM.
Turning to `CCOC(=O)N1CCN(/[N+]([O-])=N/Oc2ccc([N+](=O)[O-])cc2[N+](=O)[O-])CC1`, half-maximal inhibition in assay [1] (Homo sapiens, HL-60) (IC50) required 0.5 µM. Besides, the Activity entry in assay [2] was “Dose-dependent effect”. In assay [3], the 50% growth inhibitory concentration (GI50) worked out at 1.32 µM and net growth stopped (TGI) at 6.61 µM.
`O=[N+]([O-])c1ccc(O/N=[N+](/[O-])N2CCN(c3ccccc3)CC2)nc1`: half-maximal inhibition in assay [1] (Homo sapiens, HL-60) (IC50) required 8 µM. In other words, the single-digit micromolar range.
In assay [1] (Homo sapiens, HL-60), `O=[N+]([O-])c1ccc(O/N=[N+](/[O-])N2CCN(c3ccccc3)CC2)c([N+](=O)[O-])c1` had an IC50 of 1.5 µM.
Same read-out and setting: the result for `C1CNCCN1` [PIPERAZINE] reads 83 µM.
Consider `CCN(CC)/[N+]([O-])=N\Oc1ccc([N+](=O)[O-])cc1C(F)(F)F`, for which the IC50 in assay [1] (Homo sapiens, HL-60) was 96 µM.
The same measure, in the same setting: with `CCOC(=O)N1CCNCC1` [N-(ETHOXYCARBONYL)PIPERAZINE] the figure was 8.6 µM; with `NC(=O)C1CCCN(/[N+]([O-])=N/Oc2ccc([N+](=O)[O-])cc2[N+](=O)[O-])C1` (stereo not given), 4.4 µM; with `CCN(CC)/[N+]([O-])=N\Oc1ccnc(SC)n1`, over 100 µM.
Take `CC(=O)Oc1ccccc1C(=O)N1CCN(/[N+]([O-])=N\Oc2ccc([N+](=O)[O-])cc2[N+](=O)[O-])CC1`: the IC50 in assay [1] (Homo sapiens, HL-60) was determined as 3.7 µM.
Same read-out and setting: the result for `CCN(CC)/[N+]([O-])=N/Oc1ccc([N+](=O)[O-])cc1[N+](=O)[O-]` reads 2.2 µM; that for `O=[N+]([O-])c1ccc(O/N=[N+](/[O-])N2CCNCC2)c([N+](=O)[O-])c1`, 5 µM.
For `CCCOC(=O)N1CCN(/[N+]([O-])=N\Oc2ccc([N+](=O)[O-])cc2[N+](=O)[O-])CC1`, it took 3.7 µM to reach half-maximal inhibition in assay [1] (Homo sapiens, HL-60) (IC50). Moreover, the TGI in assay [1] (Homo sapiens, HL-60) stood at 8.1 µM; in assay [3], 10.2 µM. The Activity in assay [4], in assay [5] and in assay [6] was 100% in each case. Further, the GI50 in assay [3] was 2.04 µM. In addition, the LC50 in assay [3] came out at 40.7 µM.
`CN(C)/[N+]([O-])=N/Oc1cc(Nc2cccc(C(=O)O)c2)c([N+](=O)[O-])cc1[N+](=O)[O-]` showed an IC50 in assay [1] (Homo sapiens, HL-60) of 10.1 µM.
Still for that read-out and setting: the result for `O=NO` [SODIUM NITRITE] reads 94 µM; that for `CC(C)(C)OC(=O)N1CCN(/[N+]([O-])=N\Oc2ccc([N+](=O)[O-])cc2[N+](=O)[O-])CC1`, 8.1 µM; that for `O=[N+]([O-])c1ccc(O/N=[N+](\[O-])N2CCN(c3ncccn3)CC2)c([N+](=O)[O-])c1`, 3.6 µM.
Still for that read-out and setting: with `O=[N+]([O-])c1ccc(O/N=[N+](\[O-])N2CCCC2)c([N+](=O)[O-])c1` the figure was 7.4 µM; with `COc1ccc(N(C)c2cc(O/N=[N+](/[O-])N(C)C)c([N+](=O)[O-])cc2[N+](=O)[O-])cc1`, over 100 µM.
`CN1CCN(/[N+]([O-])=N\Oc2ccc([N+](=O)[O-])cc2[N+](=O)[O-])CC1` yielded an IC50 in assay [1] (Homo sapiens, HL-60) of 6.7 µM.
In assay [1] (Homo sapiens, HL-60), `CCOC(=O)N1CCN(/[N+]([O-])=N\O)CC1` returned an IC50 of 4 µM.
The same measure, in the same setting: with `N[C@@H](CCC(=O)N[C@H](CSc1ccc([N+](=O)[O-])cc1[N+](=O)[O-])C(=O)NCC(=O)O)C(=O)O` the figure was 8.4 µM; with `CCOC(=O)N1CCN(/[N+]([O-])=N/Oc2cc(F)c([N+](=O)[O-])cc2[N+](=O)[O-])CC1`, 1 µM.
`O=[N+]([O-])c1ccc(Cl)c([N+](=O)[O-])c1` [DINITROCHLOROBENZENE] came in with an IC50 in assay [1] (hl-60) of 1.4 µM.
Take `NC(=O)C1CCN(/[N+]([O-])=N/Oc2ccc([N+](=O)[O-])cc2[N+](=O)[O-])CC1`: half-maximal inhibition in assay [1] (Homo sapiens, HL-60) (IC50) was put at 5.9 µM.
For the compound `CCN(CC)/[N+]([O-])=N/Oc1cc(O/N=[N+](/[O-])N(CC)CC)c([N+](=O)[O-])cc1[N+](=O)[O-]`, the IC50 in assay [1] (Homo sapiens, HL-60) stood at 1 µM.
The same measure, in the same setting: with `CN(C)S(=O)(=O)N1CCN(/[N+]([O-])=N\Oc2ccc([N+](=O)[O-])cc2[N+](=O)[O-])CC1` the figure was 5.2 µM.
`CCCCOC(=O)N1CCN(/[N+]([O-])=N\Oc2ccc([N+](=O)[O-])cc2[N+](=O)[O-])CC1`: in assay [1] (Homo sapiens, HL-60), the IC50 is 3.5 µM and the TGI worked out at 57.5 µM. The compound further yielded an Activity in assay [4] of 100%. In assay [5], this compound had an Activity of 100%. In assay [3], this compound displayed a GI50 of 6.31 µM, an LC50 of 63.1 µM and a TGI of 23.4 µM. The Activity in assay [6] is listed as 100%.
Compound `CC(C)Cc1ccc(C(C)C(=O)N2CCN(/[N+]([O-])=N\Oc3ccc([N+](=O)[O-])cc3[N+](=O)[O-])CC2)cc1` (stereo not given) came in with a 50% inhibitory concentration (IC50) in assay [1] (Homo sapiens, HL-60) of 3.2 µM.
Still for that read-out and setting: with `CNc1ccc(C(=O)Oc2cc(O/N=[N+](/[O-])N(C)C)c([N+](=O)[O-])cc2[N+](=O)[O-])cc1` the figure was 6.3 µM; with `CN(C)/[N+]([O-])=N\Oc1ccc([N+](=O)[O-])cn1`, over 100 µM.
With `O=C(OCc1ccccc1)N1CCN(/[N+]([O-])=N\Oc2ccc([N+](=O)[O-])cc2[N+](=O)[O-])CC1`, half-maximal inhibition in assay [1] (Homo sapiens, HL-60) (IC50) required 17 µM. For the same compound, the Activity in assay [4] is listed as 100%. In assay [5], this compound yielded an Activity of 100%. In assay [3], this compound registered a GI50 of 7.08 µM, an LC50 of 77.6 µM and a TGI of 30.9 µM. The Activity in assay [6] worked out at 100%.
`CCN(CC)/[N+]([O-])=N\Oc1ccccc1[N+](=O)[O-]` displayed an IC50 in assay [1] (Homo sapiens, HL-60) of over 100 µM.
The same measure, in the same setting: with `CCN(CC)C(=O)N1CCN(/[N+]([O-])=N\Oc2ccc([N+](=O)[O-])cc2[N+](=O)[O-])CC1` the figure was 7.3 µM; with `CN(C)/[N+]([O-])=N\Oc1ccc([N+](=O)[O-])cc1[N+](=O)[O-]`, 2.4 µM; with `O=[N+]([O-])c1cc(C(F)(F)F)ccc1O/N=[N+](\[O-])N1CCN(c2ccccc2)CC1`, over 100 µM.
Still for that read-out and setting: the result for `CC(=O)N1CCN(/[N+]([O-])=N\Oc2ccc([N+](=O)[O-])cc2[N+](=O)[O-])CC1` reads 3.9 µM; that for `O=C(c1cccnc1)N1CCN(/[N+]([O-])=N\Oc2ccc([N+](=O)[O-])cc2[N+](=O)[O-])CC1`, 7.3 µM.
Same read-out and setting: the result for `O=[N+]([O-])c1ccc(O)c([N+](=O)[O-])c1` [2,4-DINITROPHENOL] reads 98 µM; that for `CN(C)/[N+]([O-])=N\Oc1cc(O)c([N+](=O)[O-])cc1[N+](=O)[O-]`, over 100 µM; that for `CCOC(=O)N1CCN(/[N+]([O-])=N/Oc2ccnc(Cl)n2)CC1`, 70 µM.
Turning to `CC(=O)NCC(=O)N1CCN(/[N+]([O-])=N\Oc2ccc([N+](=O)[O-])cc2[N+](=O)[O-])CC1`, the IC50 in assay [1] (Homo sapiens, HL-60) stood at 8.8 µM.
The same measure, in the same setting: the result for `CN(c1cccc(C(=O)O)c1)c1cc(O/N=[N+](/[O-])N(C)C)c([N+](=O)[O-])cc1[N+](=O)[O-]` reads 12 µM; that for `CN(C)/[N+]([O-])=N\Oc1cc(F)c([N+](=O)[O-])cc1[N+](=O)[O-]`, 3.5 µM; that for `CCN(CC)/[N+]([O-])=N\Oc1ccc([N+](=O)[O-])cc1`, over 100 µM.
On the same count and under the same terms, the result for `O=C(ON1C(=O)CCC1=O)N1CCN(/[N+]([O-])=N\Oc2ccc([N+](=O)[O-])cc2[N+](=O)[O-])CC1` reads 27 µM.
